Results: ChEMBL document CHEMBL4602692, “Synthesis and Biological Evaluation of Tryptamines Found in Hallucinogenic Mushrooms: Norbaeocystin, Baeocystin, Norpsilocin, and Aeruginascin” (J Nat Prod, 2020)
The source made the active and inactive calls. The rule behind the calls is not given here.

Key:
[1] = target: 5-hydroxytryptamine receptor 2A (Mus musculus) (UniProt P35363); assay: Agonist activity at mouse 5-HT2A receptor expressed in Flp-In T-REx 293 cells assessed as induction of Gq-mediated calcium flux incubated for 1 hr by Flou4-AM dye based FLIPR assay relative to serotonin; format: functional, cell-based
Sequence of 5-hydroxytryptamine receptor 2A (Mus musculus) (P35363 whole entry): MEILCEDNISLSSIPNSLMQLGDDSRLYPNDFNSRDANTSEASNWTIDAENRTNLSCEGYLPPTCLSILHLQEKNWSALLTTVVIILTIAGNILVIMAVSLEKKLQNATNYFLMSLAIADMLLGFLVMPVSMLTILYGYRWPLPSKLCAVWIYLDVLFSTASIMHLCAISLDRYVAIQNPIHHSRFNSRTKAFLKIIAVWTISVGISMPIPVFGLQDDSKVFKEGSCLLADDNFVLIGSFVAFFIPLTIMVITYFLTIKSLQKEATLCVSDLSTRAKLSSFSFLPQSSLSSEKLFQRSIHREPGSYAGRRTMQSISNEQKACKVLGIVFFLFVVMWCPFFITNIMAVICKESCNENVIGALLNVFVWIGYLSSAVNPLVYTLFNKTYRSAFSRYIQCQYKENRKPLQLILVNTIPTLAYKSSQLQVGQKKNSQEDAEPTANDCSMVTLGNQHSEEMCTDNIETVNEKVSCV

[2] = target: 5-hydroxytryptamine receptor 2A (Homo sapiens) (UniProt P28223); assay: Agonist activity at human 5-HT2A receptor expressed in Flp-In T-REx 293 cells assessed as induction of Gq-mediated calcium flux incubated for 1 hr by Flou4-AM dye based FLIPR assay relative to serotonin; format: functional, cell-based
Sequence of 5-hydroxytryptamine receptor 2A (Homo sapiens) (P28223 whole entry): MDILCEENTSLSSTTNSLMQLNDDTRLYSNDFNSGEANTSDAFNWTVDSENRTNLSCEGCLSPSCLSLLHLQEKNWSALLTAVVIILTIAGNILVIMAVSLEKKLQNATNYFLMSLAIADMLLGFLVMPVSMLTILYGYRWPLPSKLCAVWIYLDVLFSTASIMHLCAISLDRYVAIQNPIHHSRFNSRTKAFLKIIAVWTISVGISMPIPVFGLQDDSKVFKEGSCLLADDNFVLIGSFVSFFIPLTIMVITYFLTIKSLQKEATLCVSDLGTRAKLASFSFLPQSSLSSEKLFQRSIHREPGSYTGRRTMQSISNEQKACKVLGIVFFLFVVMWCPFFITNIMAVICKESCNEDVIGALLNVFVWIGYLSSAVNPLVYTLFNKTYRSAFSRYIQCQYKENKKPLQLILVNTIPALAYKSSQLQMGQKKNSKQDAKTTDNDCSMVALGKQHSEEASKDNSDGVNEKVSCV

[3] = target: 5-hydroxytryptamine receptor 2A (Mus musculus, UniProt P35363); assay: Agonist activity at mouse 5-HT2A receptor expressed in Flp-In T-REx 293 cells assessed as induction of Gq-mediated calcium flux incubated for 1 hr by Flou4-AM dye based FLIPR assay; format: functional, cell-based
Sequence of 5-hydroxytryptamine receptor 2A (P35363 whole entry): as the sequence (P35363 whole entry) above

[4] = system: Mus musculus; assay: Induction of head-twitch response in C57BL/6J mouse at 0.03 to 3 mg/kg, ip measured for 20 mins; format: functional, organism-based
[5] = system: Mus musculus; assay: Induction of head-twitch response in ip dosed C57BL/6J mouse measured for 20 mins; format: functional

Row | Structure (SMILES) | Emax [1] [%] | Emax [2] [%] | EC50 [3] [µM] | Activity [4] | Activity [5] | ED50 [5] [mg/kg]
1 | CNCCc1c[nH]c2cccc(O)c12 | 99 | 93 | 0.019 | – | – | –
2 | CNCCc1c[nH]c2cccc(OP(=O)(O)O)c12 | – | – | – | inactive | – | –
3 | CN(C)CCc1c[nH]c2cccc(O)c12 [PSILOCIN] | 72 | 73 | 0.0099 | – | – | –
4 | CN(C)CCc1c[nH]c2cccc(OP(=O)(O)O)c12 [PSILOCYBIN] | – | – | – | – | Dose-dependent effect | 0.4
